Read-outs that look alike come from different tables or passages of the source.
How the values were obtained:
[1] = tested on: ECS-Amnesie; experiment: inhibitory (passive) avoidance test (step-through test), reversal of ECS-induced amnesia; type: in vivo, Mäusen; details: po
Description: (§1) Die Verbindungen der Formel I besitzen wertvolle pharmakologische Eigenschaften, insbesondere nootrope. Die nootrope Wirkung der erfindungsgemäßen Verbindungen wurde an Mäusen, die ein Körpergewicht von 20-25 g besaßen, im inhibitory (passive) avoidance test (step-through-test) geprüft. Eine modifizierte Form der von J. Kopp. Z. Bodanecky und M.E. Jarvik beschriebenen Test-Methode wurde von J. Bures, 0. Buresova und J. Huston im "Techniques and Basic Experiments for the Study of Brain and Benavior", Elsevier Scientific Publishers, Amsterdam 1983, beschrieben.
(§2) Entsprechend diesen Literaturangaben wird eine Substanz dann als nootrop wirksam bezeichnet, wenn sie bei den Versuchstieren die mittels eines electroconvulsiven Schocks erzeugte Amnesie (ECS-Amnesie) bzw. mittels Scopolamin-Injektion erzeugte Amnesie aufzuheben vermag.
(§3) Die Versuche wurden nach modifizierten Test-Methoden mit den erfindungsgemäßen Verbindungen durchgeführt. Als Vergleichsverbindung diente das bekannte Nootropikum 2-0xo-1-pyrrolidinylessigsäurea- mid (Piracetam). Die deutliche Überlegenheit der erfindungsgemäßen Verbindungen über die Vergleichssubstanz zeigte sich darin, daß der amnestische Effekt bereits mit einer MED (minimal effective dose) von 1-10 mg/kg p.o. aufzuheben ist. Die Vergleichssubstanz hat eine MED von ca. 500-1000 mg/kg p.o.

[2] = tested on: Scopolamin-Amnesie; experiment: inhibitory (passive) avoidance test (step-through test), reversal of scopolamine-induced amnesia; type: in vivo, Mäusen; details: Mus musculus, po, read-out: Inhibitory avoidance MED mg/kg p.o. Scopolamin-Amnesie
Description: as §1, §2, §3

[3] = Mus musculus, read-out: Inhibitory avoidance MED mg/kg p.o. ECS-Amnesie
[4] = Mus musculus, mice 20-25 g, amnesia induced by electroconvulsive shock, read-out: Inhibitory avoidance MED mg/kg p.o. ECS-Amnesie
[5] = mice 20-25 g, amnesia induced by scopolamine injection

Row | SMILES | minimal effective dose [1, 3] [mg/kg] | minimal effective dose [1, 4] [mg/kg] | minimal effective dose [2, 5] [mg/kg] | further results
1 | CC(C)N(CCNC(=O)CN1C[C@@H](O)[C@@H](O)C1=O)C(C)C [Beispiel 28, N-[2-(Diisopropylamino)ethyl]-2-[(3R,4R)-3,4-dihydroxypyrrolidin-2-on-1-yl]acetamid] | 10 |  |  | 
2 | O=C1[C@H](O)[C@H](O)CN1Cc1ccccc1 [Beispiel 29, 1-Benzyl-(3R,4R)-3.4-dihydroxy-pyrrolidin2-on] |  | 3 | 1 | 
3 | Cc1ccc(CN2C[C@@H](O)[C@@H](O)C2=O)cc1 [Beispiel 33] |  | 3 |  | 
4 | COc1cccc(CN2C[C@@H](O)[C@@H](O)C2=O)c1 [Beispiel 34] |  | 3 | 1 | 
5 | Nc1ccc(CN2C[C@@H](O)[C@@H](O)C2=O)cc1 [Beispiel 36, 1-(4-Aminobenzyl)-(3R,4R)-3,4-dihydroxypyrrolidin-2-on] |  | 3 |  | 
6 | NC(=O)CN1CCCC1=O [Piracetam, 2-0xo-1-pyrrolidinylessigsäurea-mid, reference compound] | 1000 |  |  | minimal effective dose ([1]; read-out: MED (minimal effective dose)): 500 to 1000 mg/kg; minimal effective dose [2]: 500 mg/kg
